Laboratory results: US10806785B2, “Immunomodulator compounds and methods of use” (Incyte Corporation, priority 2016, dated 2020)

The molecules below were run against PD-1/PD-L1 (Homo sapiens (Human), UniProt Q9NZQ7) (assay: PD-1/PD-L1 binding assay (HTRF)).
Summary of the method: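 Fc-tagged human PD-1 (25-167) and His-tagged PD-L1 (19-238), listed as […] and 10 nM final, preincubated 40 min with inhibitors in PBS pH 7.4, 0.05% Tween-20, 0.1% BSA, 1% DMSO, 25 °C. Eu anti-IgG/APC anti-His added, 60 min, 665/620 nm HTRF ratio; IC50 fitted from percent control activity.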

PD-1/PD-L1, sequence (Q9NZQ7 19-238): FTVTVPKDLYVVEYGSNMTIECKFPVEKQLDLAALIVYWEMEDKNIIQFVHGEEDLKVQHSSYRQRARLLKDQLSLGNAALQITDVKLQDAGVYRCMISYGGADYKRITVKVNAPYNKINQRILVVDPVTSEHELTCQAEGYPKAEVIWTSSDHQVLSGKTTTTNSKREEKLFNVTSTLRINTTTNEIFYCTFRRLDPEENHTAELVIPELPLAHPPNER

IC50, ≤ 10 nM:
Cc1c(NC(=O)c2nc3c(n2C)CCN(CC24CCC(C(=O)O)(CC2)C4)C3)cccc1-c1cccc(NC(=O)c2nc3c(n2C)CCN(C)C3)c1Cl [Example 102, 4-((2-((2′-chloro-3′-(1,5-dimethyl-4,5,6,7-tetrahydro-1H-imidazo[4,5-c]pyridine-2-carboxamido)-2-methyl-[1,1′-biphenyl]-3-yl)carbamoyl)-1-methyl-1,4,6,7-tetrahydro-5H-imidazo[4,5-c]pyridin-5-yl)methyl)bicyclo[2.2.1]heptane-1-carboxylic acid]
Cc1c(NC(=O)c2nc3c(n2C)CCN(CCc2ccc(C(=O)O)cc2)C3)cccc1-c1cccc(NC(=O)c2nc3c(n2C)CCN(C)C3)c1Cl [Example 101, 4-(2-(2-((2′-chloro-3′-(1,5-dimethyl-4,5,6,7-tetrahydro-1H-imidazo[4,5-c]pyridine-2-carboxamido)-2-methyl-[1,1′-biphenyl]-3-yl)carbamoyl)-1-methyl-1,4,6,7-tetrahydro-5H-imidazo[4,5-c]pyridin-5-yl)ethyl)benzoic acid]
Cc1c(NC(=O)c2nc3c(n2C)CCN(C[C@H](C)O)C3)cccc1-c1cccc(NC(=O)c2nc3c(n2C)CCN(CCO)C3)c1Cl [Example 42, (S)—N-(2′-chloro-3′-(5-(2-hydroxyethyl)-1-methyl-4,5,6,7-tetrahydro-1H-imidazo[4,5-c]pyridine-2-carboxamido)-2-methylbiphenyl-3-yl)-5-(2-hydroxypropyl)-1-methyl-4,5,6,7-tetrahydro-1H-imidazo[4,5-c]pyridine-2-carboxamide]
CC(C)N1CCc2c(nc(C(=O)Nc3cccc(-c4cccc(NC(=O)c5nc6c(n5C)CCN(CC[C@H]5CC[C@H](C(=O)O)CC5)C6)c4C#N)c3Cl)n2C)C1 [Compound 155, trans-4-(2-(2-((2′-chloro-2-cyano-3′-(5-isopropyl-1-methyl-4,5,6,7-tetrahydro-1H-imidazo[4,5-c]pyridine-2-carboxamido)-[1,1′-biphenyl]-3-yl)carbamoyl)-1-methyl-1,4,6,7-tetrahydro-5H-imidazo[4,5-c]pyridin-5-yl)ethyl)cyclohexane-1-carboxylic acid]
C[C@@H](O)CN1CCc2c(nc(C(=O)Nc3cccc(-c4cccc(NC(=O)c5nc6c(n5C)CCN(C[C@H]5CC[C@@H](C(=O)O)CC5)C6)c4Cl)c3Cl)n2C)C1 [Example 76, cis-4-((2-((2,2′-dichloro-3′-(5-((R)-2-hydroxypropyl)-1-methyl-4,5,6,7-tetrahydro-1H-imidazo[4,5-c]pyridine-2-carboxamido)-[1,1′-biphenyl]-3-yl)carbamoyl)-1-methyl-1,4,6,7-tetrahydro-5H-imidazo[4,5-c]pyridin-5-yl)methyl)cyclohexane-1-carboxylic acid]
Cc1c(-c2nc3c(o2)CN(C(=O)CN[C@H]2C[C@H](O)C2)C3)cccc1-c1cccc(NC(=O)c2nc3c(n2C)CCN(C)C3)c1Cl [Compound 166, N-(2-chloro-3′-(5-((trans-3-hydroxycyclobutyl)glycyl)-5,6-dihydro-4H-pyrrolo[3,4-d]oxazol-2-yl)-2′-methyl-[1,1′-biphenyl]-3-yl)-1,5-dimethyl-4,5,6,7-tetrahydro-1H-imidazo[4,5-c]pyridine-2-carboxamide]
Cc1c(NC(=O)c2nc3c(n2C)CCN(C2CCOCC2)C3)cccc1-c1cccc(NC(=O)c2nc3c(n2C)CCN(CCc2ccc(C(=O)O)cc2)C3)c1Cl [Example 124, 4-(2-(2-((2-chloro-2′-methyl-3′-(1-methyl-5-(tetrahydro-2H-pyran-4-yl)-4,5,6,7-tetrahydro-1H-imidazo[4,5-c]pyridine-2-carboxamido)-[1,1′-biphenyl]-3-yl)carbamoyl)-1-methyl-1,4,6,7-tetrahydro-5H-imidazo[4,5-c]pyridin-5-yl)ethyl)benzoic acid]
